Legend:
[1] = system: A375 cells; test: Inhibition of cancer cell growth, MTT assay, A375; assay type: cell-based; conditions: Homo sapiens, A-375, 72 h exposure
Method in brief: (§1)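 IC50 derived from percent growth inhibition versus concentration, tested in triplicate. Growth inhibition came from MTT read at 570 nm after 72 h drug exposure, relative to viable cells at dosing. Cells (about 4000/well, RPMI 1640 + 10% FBS) adhered 24 h before treatment; final DMSO 1%.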

[2] = system: A549 cells; test: Inhibition of cancer cell growth, MTT assay, A549; assay type: cell-based; conditions: Homo sapiens, A549, 72 h exposure
Method in brief: as §1

[3] = target: KDR (VEGFR2) (Homo sapiens (Human), UniProt P35968); test: Z′-LYTE kinase inhibition assay (Invitrogen), KDR; assay type: biochemical; conditions: Z′-LYTE method; for inhibition at 1 µM: 1 μM compound, read-out: % inhibition at 1 μM against KDR
KDR (VEGFR2), sequence (P35968 20-1356): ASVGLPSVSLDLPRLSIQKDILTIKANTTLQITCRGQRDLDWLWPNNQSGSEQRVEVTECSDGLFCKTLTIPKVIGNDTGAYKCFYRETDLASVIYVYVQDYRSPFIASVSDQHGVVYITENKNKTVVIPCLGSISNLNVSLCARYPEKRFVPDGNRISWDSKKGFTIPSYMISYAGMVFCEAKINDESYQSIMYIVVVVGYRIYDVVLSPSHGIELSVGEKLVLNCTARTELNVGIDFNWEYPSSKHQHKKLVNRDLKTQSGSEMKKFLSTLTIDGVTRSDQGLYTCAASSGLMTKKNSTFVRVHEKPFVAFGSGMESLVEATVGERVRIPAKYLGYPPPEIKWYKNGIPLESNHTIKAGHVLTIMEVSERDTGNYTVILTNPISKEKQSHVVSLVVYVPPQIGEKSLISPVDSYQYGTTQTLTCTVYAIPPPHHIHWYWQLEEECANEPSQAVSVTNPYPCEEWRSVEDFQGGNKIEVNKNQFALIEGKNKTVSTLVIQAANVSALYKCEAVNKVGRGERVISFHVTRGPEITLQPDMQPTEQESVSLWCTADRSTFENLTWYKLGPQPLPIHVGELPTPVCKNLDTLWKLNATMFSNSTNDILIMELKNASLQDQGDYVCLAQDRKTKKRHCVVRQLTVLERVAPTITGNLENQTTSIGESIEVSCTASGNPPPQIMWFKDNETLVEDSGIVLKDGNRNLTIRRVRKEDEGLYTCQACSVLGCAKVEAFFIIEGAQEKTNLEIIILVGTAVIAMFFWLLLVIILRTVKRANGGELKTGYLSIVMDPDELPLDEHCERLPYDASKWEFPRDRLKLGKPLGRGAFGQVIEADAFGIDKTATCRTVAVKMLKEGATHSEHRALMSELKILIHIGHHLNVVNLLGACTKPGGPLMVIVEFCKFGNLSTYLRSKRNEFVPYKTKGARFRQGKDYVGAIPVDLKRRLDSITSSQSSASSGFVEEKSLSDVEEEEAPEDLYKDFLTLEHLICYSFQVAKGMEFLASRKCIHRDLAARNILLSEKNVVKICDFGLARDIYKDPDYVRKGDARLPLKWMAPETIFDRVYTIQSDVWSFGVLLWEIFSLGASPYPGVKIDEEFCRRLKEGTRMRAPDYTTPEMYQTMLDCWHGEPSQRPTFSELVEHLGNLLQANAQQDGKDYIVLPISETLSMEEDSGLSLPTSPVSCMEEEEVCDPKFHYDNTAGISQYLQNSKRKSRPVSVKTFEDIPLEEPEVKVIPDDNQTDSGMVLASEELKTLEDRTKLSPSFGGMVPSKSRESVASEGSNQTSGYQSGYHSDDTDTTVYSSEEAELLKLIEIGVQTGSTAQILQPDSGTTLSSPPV
Method in brief: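 Z′-LYTE FRET assay: 10 μL reactions with 0.5–11.7 ng KDR and 2 μM Tyr 01 peptide in 50 mM HEPES pH 7.5, 10 mM MgCl2, 1 mM EGTA, 0.01% BRIJ-35, 1 h at room temperature. Development Reagent B (1:256) added for 60 min, fluorescence read; IC50 from concentration–inhibition curves.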

[4] = target: BRAF V600E (Homo sapiens (Human), UniProt P15056, V600E); test: Z′-LYTE kinase inhibition assay (Invitrogen), BRAF V600E; assay type: biochemical; conditions: Z′-LYTE method; for inhibition at 1 µM: 1 μM compound, read-out: % inhibition at 1 μM against BRAF V600E
BRAF V600E, sequence (P15056 whole entry V600E): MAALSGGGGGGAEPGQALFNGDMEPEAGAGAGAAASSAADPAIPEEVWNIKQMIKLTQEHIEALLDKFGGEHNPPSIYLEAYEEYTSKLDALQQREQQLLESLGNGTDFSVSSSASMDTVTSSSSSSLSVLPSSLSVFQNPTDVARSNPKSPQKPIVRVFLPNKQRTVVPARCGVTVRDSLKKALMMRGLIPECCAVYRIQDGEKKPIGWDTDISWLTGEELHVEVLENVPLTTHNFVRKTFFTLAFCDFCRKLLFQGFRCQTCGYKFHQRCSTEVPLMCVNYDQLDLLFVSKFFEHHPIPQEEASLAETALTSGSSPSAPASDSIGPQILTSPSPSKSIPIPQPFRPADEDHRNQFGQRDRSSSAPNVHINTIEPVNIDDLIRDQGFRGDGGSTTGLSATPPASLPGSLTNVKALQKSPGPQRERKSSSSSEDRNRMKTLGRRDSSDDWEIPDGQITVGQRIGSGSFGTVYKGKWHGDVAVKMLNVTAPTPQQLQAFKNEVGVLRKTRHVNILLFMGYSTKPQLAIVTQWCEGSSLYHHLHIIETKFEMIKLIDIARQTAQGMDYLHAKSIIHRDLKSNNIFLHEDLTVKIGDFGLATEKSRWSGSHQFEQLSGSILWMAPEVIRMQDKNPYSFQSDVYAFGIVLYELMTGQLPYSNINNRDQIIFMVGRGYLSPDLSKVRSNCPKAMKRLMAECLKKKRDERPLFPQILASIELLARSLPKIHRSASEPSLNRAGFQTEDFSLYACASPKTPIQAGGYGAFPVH
Method in brief: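 FRET-based Z′-LYTE peptide phosphorylation format in 50 mM HEPES pH 7.5, 0.01% BRIJ-35, 10 mM MgCl2, 1 mM EGTA with ATP. Kinase reaction 60 min at room temperature, then protease development step 60 min at room temperature before fluorescence read. IC50 from compound concentration versus percent inhibition.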

Row | Compound | IC50 [1] [µM] | IC50 [2] [µM] | inhibition at 1 µM [3] [%] | inhibition at 1 µM [4] [%] | IC50 ([3]; read-out: IC50 against KDR) [µM] | IC50 ([4]; read-out: IC50 against BRAF V600E) [µM]
1 | O=C(Nc1cc(F)cc(C(=O)c2ccc3nccnc3c2)c1)c1cccc(F)c1 [Compound C125, 3-fluoro-N-(3-fluoro-5-(quinoxaline-6-carbonyl)phenyl)benzamide] | > 5 | > 5 | < 70 | < 70 | – | –
2 | O=C(Nc1cccc(C(=O)c2ccc3ncc(N4CCOCC4)nc3c2)c1)c1ccc(Cl)c(C(F)(F)F)c1 [Compound C120, 4-chloro-N-(3-(3-morpholinoquinoxaline-6-carbonyl)phenyl)-3-(trifluoromethyl)benzamide] | 1 to 5 | 2 to 5 | 70 to 89 | > 89 | – | –
3 | O=C(Nc1cccc(F)c1)Nc1cc(F)cc(C(=O)c2ccc3ncc(N4CCOCC4)nc3c2)c1 [Compound C037, 1-(3-fluoro-5-(3-morpholinoquinoxaline-6-carbonyl)phenyl)-3-(3-fluorophenyl)urea] | 1 to 5 | > 5 | < 70 | > 89 | – | –
4 | O=C(Nc1cccc(Cl)c1)Nc1cc(F)cc(C(=O)c2ccc3nccnc3c2)c1 [Compound C068, 1-(3-chlorophenyl)-3-(3-fluoro-5-(quinoxaline-6-carbonyl)phenyl)urea] | > 5 | > 5 | < 70 | > 89 | – | –
5 | O=C(Nc1ccc(F)c(C(=O)c2ccc3ncc(N4CCOCC4)nc3c2)c1)c1cccc(F)c1 [Compound C136] | 1 to 5 | > 5 | > 89 | > 89 | – | –
6 | O=C(Nc1ccc(C(F)(F)F)cc1)Nc1cc(F)cc(C(=O)c2ccc3ncc(N4CCOCC4)nc3c2)c1 [Compound C048, 1-(3-fluoro-5-(3-morpholinoquinoxaline-6-carbonyl)phenyl)-3-(4-(trifluoromethyl)phenyl)urea] | < 1 | 2 to 5 | < 70 | > 89 | – | –
7 | O=C(Nc1ccc(Cl)c(Cl)c1)Nc1ccc(F)c(C(=O)c2ccc3ncc(N4CCOCC4)nc3c2)c1 [Compound C058, 1-(3,4-dichlorophenyl)-3-(4-fluoro-3-(3-morpholinoquinoxaline-6-carbonyl)phenyl)urea] | < 1 | < 2 | > 89 | > 89 | – | –
8 | O=C(Nc1cccc(C(F)(F)F)c1)Nc1ccc(F)c(C(=O)c2ccc3nccnc3c2)c1F [Compound C010, 1-(2,4-difluoro-3-(quinoxaline-6-carbonyl)phenyl)-3-(3-(trifluoromethyl)phenyl)urea] | > 5 | > 5 | < 70 | 70 to 89 | – | –
9 | O=C(Nc1cc(F)cc(Cl)c1)Nc1ccc(F)c(C(=O)c2ccc3nccnc3c2)c1 [Compound C078, 1-(3-chloro-5-fluorophenyl)-3-(4-fluoro-3-(quinoxaline-6-carbonyl)phenyl)urea] | 1 to 5 | 2 to 5 | 70 to 89 | > 89 | – | –
10 | O=C(Nc1cc(F)c(F)c(C(=O)c2ccc3nccnc3c2)c1)c1cccc(F)c1 [Compound C131, N-(3,4-difluoro-5-(quinoxaline-6-carbonyl)phenyl)-3-fluorobenzamide] | > 5 | > 5 | < 70 | > 89 | – | –
11 | O=C(Nc1cc(F)cc(C(=O)c2ccc3nccnc3c2)c1)c1cccc(C(F)(F)F)c1 [Compound C126, N-(3-fluoro-5-(quinoxaline-6-carbonyl)phenyl)-3-(trifluoromethyl)benzamide] | 1 to 5 | > 5 | < 70 | > 89 | – | –
12 | O=C(Nc1ccc(C(F)(F)F)cc1)Nc1ccc(F)c(C(=O)c2ccc3ncc(N4CCOCC4)nc3c2)c1 [Compound C057, 1-(4-fluoro-3-(3-morpholinoquinoxaline-6-carbonyl)phenyl)-3-(4-(trifluoromethyl)phenyl)urea] | < 1 | < 2 | > 89 | > 89 | – | –
13 | O=C(Nc1cccc(F)c1)Nc1cccc(C(=O)c2ccc3ncc(N4CCOCC4)nc3c2)c1 [Compound C016, 1-(3-fluorophenyl)-3-(3-(3-morpholinoquinoxaline-6-carbonyl)phenyl)urea] | > 5 | > 5 | 70 to 89 | > 89 | > 0.1 | < 0.1
14 | O=C(Nc1cccc(C(=O)c2ccc3ncc(N4CCCC4)nc3c2)c1)c1ccc(Cl)c(C(F)(F)F)c1 [Compound C123, 4-chloro-N-(3-(3-(pyrrolidin-1-yl)quinoxaline-6-carbonyl)phenyl)-3-(trifluoromethyl)benzamide] | > 5 | > 5 | 70 to 89 | 70 to 89 | – | –
15 | Cn1cc(-c2cnc3ccc(C(=O)c4cccc(NC(=O)c5ccc(Cl)c(C(F)(F)F)c5)c4)cc3n2)cn1 [Compound C130, 4-chloro-N-(3-(3-(1-methyl-1H-pyrazol-4-yl)quinoxaline-6-carbonyl)phenyl)-3-(trifluoromethyl)benzamide] | 1 to 5 | < 2 | > 89 | > 89 | – | –
16 | O=C(Nc1cc(F)c(F)c(C(=O)c2ccc3ncc(N4CCOCC4)nc3c2)c1F)c1ccc(Cl)c(C(F)(F)F)c1 [Compound C139] | > 5 | > 5 | < 70 | < 70 | – | –
17 | O=C(Nc1ccc(F)c(Cl)c1)Nc1ccc(F)c(C(=O)c2ccc3ncc(N4CCOCC4)nc3c2)c1 [Compound C055, 1-(3-chloro-4-fluorophenyl)-3-(4-fluoro-3-(3-morpholinoquinoxaline-6-carbonyl)phenyl)urea] | < 1 | < 2 | > 89 | > 89 | – | –
18 | O=C(Nc1cc(F)c(F)c(C(=O)c2ccc3ncc(N4CCOCC4)nc3c2)c1F)c1cccc(C(F)(F)F)c1 [Compound C138, N-(2,4,5-trifluoro-3-(3-morpholinoquinoxaline-6-carbonyl)phenyl)-3-(trifluoromethyl)benzamide] | 1 to 5 | > 5 | > 89 | 70 to 89 | – | –
19 | O=C(Nc1cc(F)cc(C(=O)c2ccc3ncc(N4CCOCC4)nc3c2)c1)Nc1ccc(Cl)c(F)c1 [Compound C051, 1-(4-chloro-3-fluorophenyl)-3-(3-fluoro-5-(3-morpholinoquinoxaline-6-carbonyl)phenyl)urea] | 1 to 5 | 2 to 5 | < 70 | > 89 | – | –
20 | COc1cnc2ccc(C(=O)c3cc(NC(=O)Nc4cccc(F)c4)ccc3F)cc2n1 [Compound C083, 1-(4-fluoro-3-(3-methoxyquinoxaline-6-carbonyl)phenyl)-3-(3-fluorophenyl)urea] | 1 to 5 | > 5 | 70 to 89 | > 89 | – | –
21 | O=C(Nc1cccc(C(F)(F)F)c1)Nc1cc(F)c(F)c(C(=O)c2ccc3ncc(N4CCOCC4)nc3c2)c1F [Compound C034, 1-(2,4,5-trifluoro-3-(3-morpholinoquinoxaline-6-carbonyl)phenyl)-3-(3-(trifluoromethyl)phenyl)urea] | 1 to 5 | 2 to 5 | < 70 | < 70 | – | –
22 | NCCNc1cnc2ccc(C(=O)c3cc(NC(=O)Nc4ccc(F)cc4)ccc3F)cc2n1 [Compound C089, 1-(3-(3-((2-aminoethyl)amino)quinoxaline-6-carbonyl)-4-fluorophenyl)-3-(4-fluorophenyl)urea] | 1 to 5 | > 5 | > 89 | > 89 | – | –
23 | O=C(Nc1cccc(F)c1)Nc1cc(F)c(F)c(C(=O)c2ccc3ncc(N4CCOCC4)nc3c2)c1F [Compound C033, 1-(3-fluorophenyl)-3-(2,4,5-trifluoro-3-(3-morpholinoquinoxaline-6-carbonyl)phenyl)urea] | 1 to 5 | 2 to 5 | < 70 | 70 to 89 | – | –
24 | O=C(Nc1cc(F)cc(C(=O)c2ccc3ncc(N4CCOCC4)nc3c2)c1)Nc1ccc(F)c(Cl)c1 [Compound C044, 1-(3-chloro-4-fluorophenyl)-3-(3-fluoro-5-(3-morpholinoquinoxaline-6-carbonyl)phenyl)urea] | 1 to 5 | 2 to 5 | 70 to 89 | > 89 | – | –

— US10759766B2, “Certain chemical entities, compositions, and methods” (NeuPharma, Inc., priority 2011, dated 2020)
